Assay results from ChEMBL document CHEMBL1201862, “PubChem BioAssay data set” (2004).
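Step 1: Grow cells in 96-well plates. Step 2: Expose to compound for 48 hours at 5 concentrations. Step 3: Interpolate endpoints linearly; if unreached, use highest concentration. GI50 marks 50% less growth.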 Calls of active or inactive are those of the source. Cut-off read from the data, not from the text of the source: active = GI50 up to about 1.1 µM and inactive = higher.

Columns and labels:
Experiment in all cases: DTP human tumour cell line panel, 48 h
HCC 2998 = system: HCC 2998
HCT-116 = system: HCT-116
HCT-15 = system: HCT-15
HOP-62 = system: HOP-62
KM12 = system: KM12
MOLT-4 = system: MOLT-4
NCI-H23 = system: NCI-H23
NCI-H460 = system: NCI-H460
RPMI-8226 = system: RPMI-8226
RXF 393 = system: RXF 393
SF-268 = system: SF-268
SF-295 = system: SF-295
SK-MEL-5 = system: SK-MEL-5
SK-OV-3 = system: SK-OV-3
SNB-19 = system: SNB-19
SR = system: SR
U-251 = system: U-251
COLO 205 = system: COLO 205
EKVX = system: EKVX

| Compound | GI50 (HCC 2998) | GI50 (HCT-116) | GI50 (HCT-15) [µM] | GI50 (HOP-62) | GI50 (KM12) | GI50 (MOLT-4) | GI50 (NCI-H23) | GI50 (NCI-H460) | GI50 (RPMI-8226) | GI50 (RXF 393) | GI50 (SF-268) | GI50 (SF-295) | GI50 (SK-MEL-5) | GI50 (SK-OV-3) | GI50 (SNB-19) | GI50 (SR) | GI50 (U-251) | GI50 (COLO 205) | GI50 (EKVX) |
| --- | --- | --- | --- | --- | --- | --- | --- | --- | --- | --- | --- | --- | --- | --- | --- | --- | --- | --- | --- |
| N#CC1=C(c2ccccc2)NNC(c2ccc(Cl)cc2)CC1=O (stereo not drawn) | 56.6 µM (inactive) | 49.3 µM (inactive) | 26.2 | 23.3 µM (inactive) | 38 µM (inactive) | 58.7 µM (inactive) | 73.6 µM (inactive) | 36.1 µM (inactive) | 29.9 µM (inactive) | 54.2 µM (inactive) | 50.8 µM (inactive) | 24.6 µM (inactive) | 20.9 µM (inactive) | 44.4 µM (inactive) | 53.2 µM (inactive) | 39.2 µM (inactive) | 57.8 µM (inactive) |  |  |
| COc1ccc(-c2nc(Sc3c([N+](=O)[O-])ncn3C)n[nH]2)cc1 | 8.87 µM (inactive) | 2.81 µM (inactive) |  | 19.1 µM (inactive) | 1.99 µM (inactive) | 2.85 µM (inactive) | 1.77 µM (inactive) | 8.77 µM (inactive) | 3.66 µM (inactive) | 1.77 µM (inactive) | 3.94 µM (inactive) | 3.33 µM (inactive) | 2.65 µM (inactive) | 4.17 µM (inactive) | 13 µM (inactive) | 3.23 µM (inactive) | 2.25 µM (inactive) | 1.82 µM (inactive) | 20.7 µM (inactive) |
| COc1ccc(C(=O)Cc2ccc(Br)cc2)cc1OC | > 100 µM (inactive) | > 100 µM (inactive) | > 100 | 79.1 µM (inactive) |  | > 100 µM (inactive) | > 100 µM (inactive) | > 100 µM (inactive) | > 100 µM (inactive) | 72.8 µM (inactive) | > 100 µM (inactive) | 40 µM (inactive) | > 100 µM (inactive) | > 100 µM (inactive) | > 100 µM (inactive) | > 100 µM (inactive) | > 100 µM (inactive) |  | > 100 µM (inactive) |
| COC1(OC)CC2C(=O)N(Cc3ccccc3)C1C(S(=O)(=O)c1ccccc1)C2C(C)S(=O)(=O)c1ccccc1 (stereo not drawn) | > 100 µM (inactive) | > 100 µM (inactive) | > 100 | > 100 µM (inactive) | > 100 µM (inactive) | > 100 µM (inactive) | > 100 µM (inactive) | > 100 µM (inactive) | > 100 µM (inactive) | > 100 µM (inactive) | > 100 µM (inactive) | > 100 µM (inactive) | > 100 µM (inactive) | > 100 µM (inactive) | > 100 µM (inactive) | > 100 µM (inactive) | > 100 µM (inactive) | > 100 µM (inactive) | 85.5 µM (inactive) |
| N#COc1ccc(Oc2ccc(OC#N)cc2)cc1 | > 100 µM (inactive) | > 100 µM (inactive) | 42.8 | > 100 µM (inactive) | > 100 µM (inactive) | 72.4 µM (inactive) | 70.5 µM (inactive) | 28.2 µM (inactive) | 32 µM (inactive) | > 100 µM (inactive) | > 100 µM (inactive) | 98.4 µM (inactive) | > 100 µM (inactive) | > 100 µM (inactive) | > 100 µM (inactive) | 24.1 µM (inactive) | 85.7 µM (inactive) | 22.4 µM (inactive) | > 100 µM (inactive) |
| CN(c1ccccc1)c1nc(=[N+]2CCCC2)ss1.[O-][Cl+3]([O-])([O-])[O-] | > 100 µM (inactive) | > 100 µM (inactive) | 87.7 |  | > 100 µM (inactive) | > 100 µM (inactive) |  | 1.85 µM (inactive) | > 100 µM (inactive) | 3.03 µM (inactive) | > 100 µM (inactive) |  | > 100 µM (inactive) | > 100 µM (inactive) | > 100 µM (inactive) | 17.1 µM (inactive) | > 100 µM (inactive) | 11.1 µM (inactive) | > 100 µM (inactive) |
| CC(=O)CC(=O)ON(C)C(=O)Cc1ccccc1 | > 100 µM (inactive) | > 100 µM (inactive) | > 100 | > 100 µM (inactive) | > 100 µM (inactive) | > 100 µM (inactive) | > 100 µM (inactive) | > 100 µM (inactive) | > 100 µM (inactive) | > 100 µM (inactive) | > 100 µM (inactive) | > 100 µM (inactive) | > 100 µM (inactive) | > 100 µM (inactive) | > 100 µM (inactive) | > 100 µM (inactive) | > 100 µM (inactive) | > 100 µM (inactive) |  |
| Cc1cc(C)nc(NS(=O)(=O)c2ccc(NC(=O)COC(=O)c3cccc4c(=O)c5ccccc5[nH]c34)cc2)n1 | 21.1 µM (inactive) | 23.7 µM (inactive) | > 100 | 23.7 µM (inactive) | 19.3 µM (inactive) | 31.3 µM (inactive) | 29.7 µM (inactive) | 49 µM (inactive) | 35.7 µM (inactive) | 36.5 µM (inactive) | 37.7 µM (inactive) | 33.7 µM (inactive) | 40.6 µM (inactive) | 38.8 µM (inactive) | 26.8 µM (inactive) | 28.6 µM (inactive) | 20 µM (inactive) | 48.8 µM (inactive) | 54.2 µM (inactive) |
